Laboratory results from ChEMBL document CHEMBL4118155, “A naphthalene diimide G-quadruplex ligand inhibits cell growth and down-regulates BCL-2 expression in an imatinib-resistant gastrointestinal cancer cell line” (Bioorg Med Chem, 2018).
The source made the active and inactive calls. No cut-off for these calls is given here.

Experiments:
Quadruplex DNA [1] = assay: Stabilization of 5'-FAM/3'-TAMRA labeled BCL-2 promoter G-quadruplex DNA (unknown origin) assessed as change in melting temperature at 0.5 uM by FRET assay; format: nucleic-acid assay
Quadruplex DNA [2] = assay: Stabilization of 5'-FAM/3'-TAMRA labeled c-KIT1 G-quadruplex DNA (unknown origin) assessed as change in melting temperature at 0.5 uM by FRET assay; format: nucleic-acid assay
[3] = Stabilization of 5'-FAM/3'-TAMRA labeled 5'-UTR BCL-2 G-quadruplex RNA (unknown origin) assessed as change in melting temperature at 0.5 uM by FRET assay
dsDNA = assay: Stabilization of 5'-FAM/3'-TAMRA labeled duplex DNA (unknown origin) assessed as change in melting temperature at 0.5 uM by FRET assay; format: nucleic-acid assay
Quadruplex DNA [4] = assay: Stabilization of 5'-FAM/3'-TAMRA labeled human F21T G-quadruplex DNA assessed as change in melting temperature at 0.5 uM by FRET assay; format: nucleic-acid assay
MCF7 = assay: Antiproliferative activity against human MCF7 cells after 96 hrs by SRB assay; format: functional, cell-based; conditions: MCF7, 96 h
[5] = Antiproliferative activity against imatinib-susceptible human GIST882 cells harboring c-KIT K642E mutant after 96 hrs by SRB assay; format: functional; conditions: GIST882, 96 h
Quadruplex DNA [6] = assay: Stabilization of 5'-FAM/3'-TAMRA labeled c-KIT2 G-quadruplex DNA (unknown origin) assessed as change in melting temperature at 0.5 uM by FRET assay; format: nucleic-acid assay
[7] = Antiproliferative activity against imatinib-resistant human GIST48 cells harboring c-KIT V560D/D820A double mutant after 96 hrs by SRB assay; format: functional; conditions: GIST48, 96 h
[8] = Antiproliferative activity against imatinib-resistant human GIST62 cells after 96 hrs by SRB assay; format: functional
[9] = Stabilization of 5'-UTR BCL-2 G-quadruplex RNA (unknown origin) transfected in imatinib-susceptible human GIST882 cells harboring c-KIT K642E mutant assessed as decrease in RNA translation at 10 uM by dual luciferase reporter gene assay relative to control; parameters: scale not given: the % may be the effect or the level left
[10] = Stabilization of 5'-FAM/3'-TAMRA labeled 5'-UTR BCL-2 G-quadruplex RNA (unknown origin) assessed as melting temperature at 0.5 uM in presence of NaCl by FRET assay
Quadruplex DNA [11] = assay: Stabilization of c-KIT G-quadruplex DNA in imatinib-resistant human GIST48 cells harboring c-KIT V560D/D820A double mutant assessed as downregulation of c-KIT protein expression at 1 uM after 1 week by immunoblot analysis relative to control
HT-29 = assay: Antiproliferative activity against human HT-29 cells after 96 hrs by SRB assay; format: functional, cell-based; conditions: HT-29, 96 h
[12] = Stabilization of 5'-UTR BCL-2 G-quadruplex RNA (unknown origin) transfected in imatinib-susceptible human GIST882 cells harboring c-KIT K642E mutant assessed as decrease in RNA translation by dual luciferase reporter gene assay
Homo sapiens = species: Homo sapiens; assay: Stabilization of 5'-UTR BCL-2 G-quadruplex RNA in imatinib-resistant human GIST48 cells harboring c-KIT V560D/D820A double mutant at 0.3 uM after 1 week by immunoblot analysis relative to control
Quadruplex DNA [13] = assay: Stabilization of c-KIT G-quadruplex DNA in imatinib-susceptible human GIST882 cells harboring c-KIT K642E mutant assessed as downregulation of c-KIT protein expression at 1 uM after 24 hrs by immunoblot analysis relative to control
HGC-27 = assay: Antiproliferative activity against human HGC27 cells after 96 hrs by SRB assay; format: functional, cell-based; conditions: HGC-27, 96 h
[14] = target: Telomerase reverse transcriptase (Homo sapiens) (UniProt O14746); assay: Inhibition of telomerase activity in imatinib-susceptible human GIST882 cells harboring c-KIT K642E mutant at 0.5 uM incubated for 1 week by Sybr green staining based TRAP-PCR method
Telomerase reverse transcriptase (Homo sapiens), sequence (O14746 whole entry): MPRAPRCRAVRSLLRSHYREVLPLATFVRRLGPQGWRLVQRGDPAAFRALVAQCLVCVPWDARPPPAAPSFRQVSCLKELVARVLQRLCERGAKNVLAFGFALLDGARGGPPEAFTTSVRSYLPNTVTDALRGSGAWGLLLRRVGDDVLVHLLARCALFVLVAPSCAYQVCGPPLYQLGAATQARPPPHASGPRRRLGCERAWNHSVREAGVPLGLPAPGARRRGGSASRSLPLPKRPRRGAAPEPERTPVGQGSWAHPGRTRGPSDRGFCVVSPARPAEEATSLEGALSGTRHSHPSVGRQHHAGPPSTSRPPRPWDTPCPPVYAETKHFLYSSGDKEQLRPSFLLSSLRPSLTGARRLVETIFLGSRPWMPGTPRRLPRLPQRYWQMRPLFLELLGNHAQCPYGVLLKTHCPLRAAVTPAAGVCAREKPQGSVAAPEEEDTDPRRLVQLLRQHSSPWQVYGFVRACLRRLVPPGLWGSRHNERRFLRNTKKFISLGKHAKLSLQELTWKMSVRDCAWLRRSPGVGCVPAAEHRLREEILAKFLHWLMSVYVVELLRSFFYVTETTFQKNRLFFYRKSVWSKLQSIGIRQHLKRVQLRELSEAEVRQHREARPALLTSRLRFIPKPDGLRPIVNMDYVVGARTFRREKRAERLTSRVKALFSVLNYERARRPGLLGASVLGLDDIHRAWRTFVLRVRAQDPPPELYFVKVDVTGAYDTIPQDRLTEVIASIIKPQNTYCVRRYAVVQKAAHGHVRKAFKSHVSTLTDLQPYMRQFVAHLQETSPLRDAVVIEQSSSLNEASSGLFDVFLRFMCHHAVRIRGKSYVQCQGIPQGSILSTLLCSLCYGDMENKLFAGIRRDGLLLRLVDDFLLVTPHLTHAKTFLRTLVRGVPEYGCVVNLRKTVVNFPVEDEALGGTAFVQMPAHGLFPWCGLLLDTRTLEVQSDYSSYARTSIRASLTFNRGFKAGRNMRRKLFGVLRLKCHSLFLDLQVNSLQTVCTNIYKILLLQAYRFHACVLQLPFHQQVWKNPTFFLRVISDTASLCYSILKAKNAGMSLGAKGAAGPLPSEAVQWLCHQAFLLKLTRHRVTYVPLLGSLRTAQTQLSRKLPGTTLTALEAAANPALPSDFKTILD

[15] = Stabilization of 5'-FAM/3'-TAMRA labeled 5'-UTR BCL-2 G-quadruplex RNA (unknown origin) assessed as melting temperature at 0.5 uM in presence of KCl by FRET assay
[16] = target: Telomerase reverse transcriptase (Homo sapiens) (UniProt O14746); assay: Inhibition of telomerase activity in imatinib-resistant human GIST48 cells harboring c-KIT V560D/D820A double mutant at 0.05 to 0.30 uM incubated for 1 week by Sybr green staining based TRAP-PCR method
Quadruplex DNA [17] = assay: Stabilization of c-KIT G-quadruplex DNA in imatinib-resistant human GIST48 cells harboring c-KIT V560D/D820A double mutant assessed as downregulation of c-KIT protein expression at 1 uM after 24 hrs by immunoblot analysis relative to control

Row | Compound | ΔTm (Quadruplex DNA [1]) [°C] | ΔTm (Quadruplex DNA [2]) [°C] | ΔTm [3] [°C] | ΔTm (dsDNA) [°C] | ΔTm (Quadruplex DNA [4]) [°C] | IC50 [5] [nM] | ΔTm (Quadruplex DNA [6]) [°C] | IC50 [7] [nM] | IC50 [8] [nM] | IC50 (HGC-27) [nM] | also measured
1 | Cc1ccc(NC(=O)c2ccc(CN3CCN(C)CC3)cc2)cc1Nc1nccc(-c2cccnc2)n1 [IMATINIB] | 0.1 | 0.2 | 0.1 | 0.1 | 0.2 | 1700 | 0.2 | 19800 | > 25000 | – | IC50 (MCF7): 11300 nM
2 | O=C1c2cc(NCCN3CCCC3)c3c4c(cc(NCCN5CCCC5)c(c24)C(=O)N1CCN1CCCC1)C(=O)N(CCN1CCCC1)C3=O | 27.6 | 11.2 | 10.7 | 3.5 | 29.7 | 1600 | 29 | 500 | 400 | 100 | Activity [9]: 30%; Tm [10]: 64.5 °C; Activity (Quadruplex DNA [11]): 37%; IC50 (HT-29): 40 nM; Activity [12]: Dose-dependent effect; Activity (Homo sapiens): 85%; Activity (Quadruplex DNA [13]): 90%; inhibition [14]: Active; Tm [15]: 91 °C; inhibition [16]: inactive; Activity (Quadruplex DNA [17]): 17%
3 | CN(C)c1ccc(Nc2c3ccc(NC(=O)CCN4CCCC4)cc3nc3cc(NC(=O)CCN4CCCC4)ccc23)cc1 | 17.9 | 6.5 | – | 7.2 | 21.6 | > 25000 | 18.5 | > 25000 | > 25000 | 2300 | –
